# Results published in patent US20230142274A1 (SIMCERE PHARMACEUTICAL CO., LTD., priority 2020, published 2023).
# Read-outs that look alike come from different tables or passages of the source.
# Test system: Daudi cells
# Test: Inhibition of human Daudi lymphoma cell proliferation (Cell-Titer Glo)
# Type: cell-based
# Settings: 3 days incubation, read-out: Anti-Proliferative Activity Against Daudi cells IC50
# Experimental: Introduction of the experimental principle: After the RAD51 inhibitor to be tested was co-incubated with cancer cells for a period of time, the influence of the test compound on cell proliferation was measured by a method for counting cell proliferation based on the quantitative measurement of intracellular ATP content.
# Materials and Cells: Daudi cells were purchased from ATCC; fetal bovine serum, 1640 medium and penicillin-streptomycin were purchased from Gibco Inc. (U.S.), 96-well plates were purchased from Corning Inc. (U.S.), and Cell-Titer Glo reagent was purchased from Promega Corporation (U.S.).
# Cell culture: Daudi cells were cultured in 1640 culture medium containing 10% fetal bovine serum and 1% penicillin-streptomycin at 37° C. in an atmosphere containing 5% CO2. Cells in logarithmic growth phase could be used for experiments.
# Assay of cell proliferation and viability: Cell-Titer Glo reagent was used to measure the inhibitory activities of the compounds on the proliferation of Daudi cell strain. The concentration of cells was adjusted, and the cells were seeded in a 96-well plate and cultured at 37° C. in an atmosphere containing 5% CO2 for 24 hours. The powder of the compound was dissolved in 100% DMSO to form a 10 mM solution. 10 μl of the solution of the compound was aspirated and transferred into a 96-well compound plate containing 20 μl of DMSO solution for 3-fold dilution and was then formulated into 10 serial dilutions. Thereafter, 2 μl of the solution of the compound was aspirated from the corresponding well and added correspondingly into a 96-well intermediate compound dilution plate containing 78 μl of complete culture medium in each well. The resultant was mixed well, and the plate was centrifuged at 1000 rpm for 1 minute. Finally, 10 μl of the solution of the compound was aspirated from the corresponding well of the 96-well intermediate compound dilution plate, and transferred into the corresponding well of the cell culture plate containing 90 μl of complete culture medium. The final concentration of DMSO was 0.25%. After the addition of the compound, the cells were continued to be incubated for 3 days at 37° C. in an atmosphere containing 5% CO2. Cell-Titer Glo reagent was added to measure cell viability.
# % Compound inhibition was calculated and IC50 of the compound was filled;
# % Compound inhibition=1−100%×(Signal−Bottom)/(Top−Bottom)
Compound,IC50,"IC50 (Homo sapiens, 72 h)"
"COc1ccc(-c2ccc(-c3cnc([C@H]4CC[C@H](NC(=O)OC(C)C)CC4)s3)c([S@](=N)(=O)C3CC3)c2)cn1 (stereo in doubt) [Example 94-1, isopropyl trans-((4-(5-(2-((R)-cyclopropanesulfonimidoyl))-4-(6-methoxypyridin-3-yl)phenyl)thiazol-2-yl)cyclohexyl)carbamate]",60 nM,
"CC(C)OC(=O)Nc1ccc(-c2cnc(N3CCC4(CC3)CN(C(=O)OC(C)C)C4)s2)c(S(=O)(=O)NC(C)(C)C)c1 [Example 8, isopropyl 7-(5-(2-(N-(tert-butyl)sulfamoyl)-4-((isopropoxycarbonyl)amino)phenyl)thiazol-2-yl)-2,7-diazaspiro[3.5]nonane-2-carboxylate]",,3950 nM
"Cc1cc(Nc2ccc(-c3cnc(C4CCC(NC(=O)OC(C)C)CC4)s3)c([S+]([O-])C3CC3)c2)n[nH]1 (stereo not drawn) [Example 52, isopropyl trans-N-[4-[5-[2-cyclopropylsulfinyl]-4-[(5-methyl-1H-pyrazol-3-yl)amino]phenyl]thiazol-2-yl]cyclohexyl]carbamate]",,80 nM
CC(C)OC(=O)NC12CCC(c3ncc(-c4ccc(Nc5cn(C)nn5)cc4S(=O)(=O)C4CC4)s3)(CC1)CC2 [Example 58],,27 nM
CC(C)OC(=O)Nc1ccc(-c2ncc(-c3ccc(Nc4cn(C)nn4)cc3S(=O)(=O)C3CC3)s2)cc1 [Example 59],,125 nM
Cc1cc(Nc2ccc(-c3cnc(C45CCC(NC(=O)OC(C)C)(CC4)CC5)s3)c(S(=O)(=O)C3CC3)c2)n[nH]1 [Example 60],,4 nM
Cc1cc(Nc2ccc(-c3cnc(-c4ccc(NC(=O)OC(C)C)cc4)s3)c(S(=O)(=O)C3CC3)c2)n[nH]1 [Example 61],,104 nM
"CC(C)OC(=O)N[C@H]1CC[C@H](c2ncc(-c3ccc(Nc4cc(C5CC5)[nH]n4)cc3S(=N)(=O)C3CC3)s2)CC1 (stereo partly drawn) [Example 63, isopropyl trans-N-[4-[5-[4-[(5-cyclopropyl-1H-pyrazol-3-yl)amino]-2-(cyclopropylsulfonimidoyl)phenyl]thiazol-2-yl]cyclohexyl]carbamate]",,70 nM
"CC(C)OC(=O)NC1CCC(c2ncc(-c3ccc(N4CCCO4)cc3S(=N)(=O)C3CC3)s2)CC1 (stereo not drawn) [Example 64, isopropyl trans-(4-(5-(2-(cyclopropanesulfonimidoyl)-4-(isoxazolidin-2-yl)phenyl)thiazol-2-yl)cyclohexyl)carbamate]",,5200 nM
"CC(C)OC(=O)N[C@H]1CC[C@H](c2ncc(-c3ccc(Nc4ccccn4)cc3S(=O)(=O)C3CC3)s2)CC1 [Example 66, isopropyl trans-N-[4-[5-[2-cyclopropylsulfonyl-4-(2-pyridylamino)phenyl]thiazol-2-yl]cyclohexyl]carbamate]",,18 nM
"CC(C)OC(=O)N[C@H]1CC[C@H](c2ncc(-c3ccc(N4CCCO4)cc3S(=O)(=O)C3CC3)s2)CC1 [Example 73, isopropyl trans-N-[4-[5-(2-cyclopropylsulfonyl-4-isoxazolidin-2-yl-phenyl)thiazol-2-yl]cyclohexyl]carbamate]",,200 nM
"CC(C)OC(=O)NC1CCC(c2ncc(-c3ccc(Nc4ccc(F)cn4)cc3S(=O)(=O)C3CC3)s2)CC1 (stereo not drawn) [Example 75, isopropyl trans-N-[4-[5-[2-cyclopropylsulfonyl]-4-[(5-fluoro-2-pyridyl)amino]phenyl]thiazol-2-yl]cyclohexyl]carbamate]",,22 nM

# The next lines start with the values.
IC50,"IC50 (Homo sapiens, 72 h)",Compound
9720 nM,,"CC(C)OC(=O)Nc1ccc(-c2cnc(N3CC4C(C3)C4NC(=O)OC(C)C)s2)c(S(=O)(=O)NC(C)(C)C)c1 (stereo not drawn) [Example 10, isopropyl exo-N-[3-(tert-butylsulfamoyl)-4-[2-[6-(isopropoxycarbonylamino)-3-azabicyclo[3.1.0]hex-3-yl]thiazol-5-yl]phenyl]carbamate]"
,2540 nM,"CC(C)OC(=O)Nc1ccc(-c2cnc(N3CCCC(NC(=O)OC(C)C)CC3)s2)c(S(=O)(=O)NC(C)(C)C)c1 (centres unmarked) [Example 11, isopropyl N-[3-(tert-butylsulfamoyl)-4-[2-[4-(isopropoxycarbonylamino)azepan-1-yl]thiazol-5-yl]phenyl]carbamate]"
,2750 nM,"CN=S(=O)(c1cc(NC(=O)OC(C)C)ccc1-c1cnc(C2CCC(NC(=O)OC(C)C)CC2)s1)C(C)C (stereo not drawn) [Example 20, isopropyl trans-N-[4-[2-[4-(isopropoxycarbonylamino)cyclohexyl]thiazol-5-yl]-3-(isopropyl-N-methyl-sulfonimidoyl)phenyl]carbamate]"
,3930 nM,"CCP(=O)(CC)c1cc(NC(=O)OC(C)C)ccc1-c1cnc([C@H]2CC[C@H](NC(=O)OC(C)C)CC2)s1 [Example 23, isopropyl trans-N-[3-diethylphosphoryl-4-[2-[4-(isopropoxycarbonylamino)cyclohexyl]thiazol-5-yl]phenyl]carbamate]"
,2270 nM,"CC(C)OC(=O)Nc1ccc(-c2cnc([C@H]3CC[C@H](NC(=O)OC(C)C)CC3)s2)c(S(=O)(=O)CC(C)(C)C)c1 [Example 24, isopropyl trans-N-[3-(2,2-dimethylpropylsulfonyl)-4-[2-[4-(isopropoxycarbonylamino)cyclohexyl]thiazol-5-yl]phenyl]carbamate]"
,680 nM,"CC(C)OC(=O)Nc1ccc(-c2cnc([C@H]3CC[C@H](NC(=O)OC(C)C)CC3)s2)c(P2(=O)CCCC2)c1 [Example 27, isopropyl trans-N-[4-[2-[4-(isopropoxycarbonylamino)cyclohexyl]thiazol-5-yl]-3-(1-oxophospholan-1-yl)phenyl]carbamate]"
,2650 nM,"CC(C)OC(=O)N[C@H]1CC[C@H](c2ncc(-c3ccc(Nc4ccon4)cc3S(=O)(=O)NC(C)(C)C)s2)CC1 [Example 30, isopropyl trans-(4-(5-(2-(N-(tert-butyl)sulfamoyl)-4-(isoxazol-3-ylamino)phenyl)thiazol-2-yl)cyclohexyl)carbamate]"
,4290 nM,"CC(C)OC(=O)N[C@H]1CC[C@H](c2ncc(-c3ccc(Nc4ccc[nH]c4=O)cc3S(=O)(=O)C(C)C)s2)CC1 [Example 35, isopropyl trans-N-[4-[5-[2-isopropylsulfonyl-4-[(2-oxo-1H-pyridin-3-yl)amino]phenyl]thiazol-2-yl]cyclohexyl]carbamate]"
,150 nM,Cc1cc(Nc2ccc(-c3cnc([C@H]4CC[C@H](NC(=O)OC(C)C)CC4)s3)c(S(=O)(=O)C(C)C)c2)sn1 [Example 38]
,900 nM,"CC(C)OC(=O)Nc1ccc(-c2nnc([C@H]3CC[C@H](NC(=O)OC(C)C)CC3)s2)c(S(=N)(=O)C(C)C)c1 (stereo partly drawn) [Example 41, isopropyl trans-N-[4-[5-[4-(isopropoxycarbonylamino)cyclohexyl]-1,3,4-thiadiazol-2-yl]-3-(isopropylsulfonimidoyl)phenyl]carbamate]"
,1580 nM,"CC(C)OC(=O)Nc1ccc(-c2cnc(C3CCC(NC(=O)OC(C)C)CC3)s2)c(S(C)(=O)=NC2CC2)c1 (stereo not drawn) [Example 43, isopropyl trans-N-[3-(N-cyclopropyl-S-methyl-sulfonimidoyl)-4-[2-[4-(isopropoxycarbonylamino)cyclohexyl]thiazol-5-yl]phenyl]carbamate]"
,680 nM,"CC(C)OC(=O)N[C@H]1CC[C@H](c2ncc(-c3ccc(Nc4cccnn4)cc3S(=O)(=O)C(C)C)s2)CC1 [Example 44, isopropyl trans-N-[4-[5-[2-isopropylsulfonyl-4-(pyridazin-3-ylamino)phenyl]thiazol-2-yl]cyclohexyl]carbamate]"
,390 nM,CC(C)OC(=O)N[C@H]1CC[C@H](c2ncc(-c3ccc(Nc4cc(C(F)(F)F)[nH]n4)cc3S(=O)(=O)C(C)C)s2)CC1 [Example 46]
,65 nM,"Cc1cc(Nc2ccc(-c3cnc([C@H]4CC[C@H](NC(=O)OC(C)C)CC4)s3)c(S(=O)(=O)C(F)(F)F)c2)n[nH]1 [Example 51, isopropyl trans-N-[4-[5-[4-[(5-methyl-1H-pyrazol-3-yl)amino]-2-(trifluoromethylsulfonyl)phenyl]thiazol-2-yl]cyclohexyl]carbamate]"
,2600 nM,"CC(=O)Nc1ccc(-c2cnc([C@H]3CC[C@H](NC(=O)OC(C)C)CC3)s2)c(S(=N)(=O)C2CC2)c1 (stereo partly drawn) [Example 67, isopropyl trans-(4-(5-(4-acetylamino-2-(cyclopropanesulfonimidoyl)phenyl]thiazol-2-yl)cyclohexyl)carbamate]"
,16 nM,CC(C)OC(=O)N[C@H]1CC[C@H](c2ncc(-c3ccc(Nc4cn[nH]c4)cc3S(=O)(=O)C3CC3)s2)CC1 [Example 71]
,90 nM,"CC(C)OC(=O)N[C@H]1CC[C@H](c2ncc(-c3ccc(NC(=O)C4CC4)cc3S(=O)(=O)C3CC3)s2)CC1 [Example 74, isopropyl trans-(4-(5-(4-(cyclopropanecarboxamido)-2-(cyclopropylsulfonyl)phenyl)thiazol-2-yl)cyclohexyl)carbamate]"
